Assay results taken from patent US10857105B2, “Compounds and compositions for intracellular delivery of therapeutic agents” (ModernaTX, Inc., priority 2017, dated 2020).

Key:
[1] = Particle size and polydispersity index of nanoparticle compositions (Zetasizer Nano ZS); assay type: physicochemical
Method: A Zetasizer Nano ZS (Malvern Instruments Ltd, Malvern, Worcestershire, UK) can be used to determine the particle size, the polydispersity index (PDI) and the zeta potential of the nanoparticle compositions in 1×PBS in determining particle size and 15 mM PBS in determining zeta potential.
(§1) Initial studies were performed to compare the delivery efficiency of nanoparticle compositions including various compounds according to Formula (I), (IA), (IB), (II), (IIa), (IIb), (IIc), (IId), (IIe), (IIf), (IIg), or (III). The cationic lipid MC3 is a current standard in the art. Accordingly, the standard MC3 formulation including about 50 mol % MC3, about 10 mol % DSPC, about 38.5 mol % cholesterol, and about 1.5 mol % PEG-DMG was used as a basis for this study. Nanoparticle compositions including DSPC as a phospholipid, cholesterol as a structural lipid, PEG-DMG as a PEG lipid, an RNA, and a compound according to Formula (I), (IA), (IB), (II), (IIa), (IIb), (IIc), (IId), (IIe), (IIf), (IIg), or (III) selected from Compounds 1-159, 168-170, and 173-175 were prepared according to or via methods similar to those described in Examples 1 and 2. The ratios of the lipids were 50:10:38.5:1.5 mol % for the lipid according to Formula (I), (IA), (IB), (II), (IIa), (IIb), (IIc), (IId), (IIe), (IIf), (IIg), or (III):DSPC:cholesterol:PEG-DMG. The RNA used was an mRNA encoding luciferase (Luc) or hEPO, wherein each uridine was replaced N1-methyl pseudouridine. Tables 1A-1E summarize the content and characteristics of the formulations.

[2] = Encapsulation efficiency of RNA in nanoparticle compositions (RIBOGREEN assay); assay type: physicochemical
Method: For nanoparticle compositions including an RNA, a QUANT-IT™ RIBOGREEN® RNA assay (Invitrogen Corporation Carlsbad, Calif.) can be used to evaluate the encapsulation of an RNA by the nanoparticle composition. The samples are diluted to a concentration of approximately 5 μg/mL, in a TE buffer solution (10 mM Tris-HCl, 1 mM EDTA, pH 7.5). 50 μL of the diluted samples are transferred to a polystyrene 96 well plate and either 50 μL of TE buffer or 50 μL of a 2% Triton X-100 solution is added to the wells. The plate is incubated at a temperature of 37° C. for 15 minutes. The RIBOGREEN® reagent is diluted 1:100 in TE buffer, and 100 μL of this solution is added to each well. The fluorescence intensity can be measured using a fluorescence plate reader (Wallac Victor 1420 Multilabel Counter; Perkin Elmer, Waltham, Mass.) at an excitation wavelength of, for example, about 480 nm and an emission wavelength of, for example, about 520 nm. The fluorescence values of the reagent blank are subtracted from that of each of the samples and the percentage of free RNA is determined by dividing the fluorescence intensity of the intact sample (without addition of Triton X-100) by the fluorescence value of the disrupted sample (caused by the addition of Triton X-100).
as §1

modified luciferase = experiment: Luciferase expression in liver, lung, spleen and femur 6 hours after intravenous administration to mice; assay type: in vivo; settings: 6 hours after intravenous 0.5 mpk, mice
Method: The efficacy of the nanoparticle compositions presented in Table 1A was further evaluated by measuring the expression of modified luciferase in the liver, lung, spleen, and femur upon administration of a given composition. Formulations were administered intravenously to mice (n=3) at a dosage of 0.5 mpk and bioluminescence measured after 6 hours. The standard MC3 formulation and a PBS control were also tested. […] Flux in the liver was lowest for compositions including Compounds 58, 59, 137, and 141. Flux in the spleen was highest for compositions including Compounds 4, 7, 33, 34, 48, 53, 108, 129, 130, and 148, and lowest for compositions including Compounds 9, 59, 124, and 141.

[3] = Table 1A, lipid:DSPC:cholesterol:PEG-DMG 50:10:38.5:1.5 mol %
[4] = Table 1B, formulated with hEPO mRNA

Row | SMILES | Size [1, 3] [nm] | EE [2, 3] [%] | Total Flux, Liver (modified luciferase) | Total Flux, Lung (modified luciferase) | Total Flux, Spleen (modified luciferase) | Size [1, 4] [nm] | EE [2, 4] [%]
1 | CCCCCCCCCN(CCCCCCCC(=O)OC(CCCCCCCC)CCCCCCCC)CCCn1ccnc1 [Compound 8, Heptadecan-9-yl 8-((3-(1H-imidazol-1-yl)propyl)(nonyl)amino)octanoate] | 121.0 | 95.8 | 7.87E+08 | 4.06E+06 | 1.51E+08 | – | –
2 | CCCCCCCC/C=C\CCCCCCCCN(CCO)CCCCCCCC(=O)OC(CCCCCCCC)CCCCCCCC [Compound 31, heptadecan-9-yl (Z)-8-((2-hydroxyethyl)(octadec-9-en-1-yl)amino) octanoate] | 73.9 | 95.11 | 5.17E+09 | 7.55E+06 | 9.42E+07 | – | –
3 | CCCCCCCCCOC(=O)CCCCCCCN(CCO)CCCCCCCC(=O)OC(CCCCCC)CCCCCCCC (stereo not drawn) [Compound 32, nonyl 8-((2-hydroxyethyl)(8-oxo-8-(pentadecan-7-yloxy)octyl)amino) octanoate] | 105.6 | 94.87 | 8.52E+09 | 1.16E+07 | 1.70E+08 | – | –
4 | CCCCCCCCCOC(=O)CCCCCCCN(CCO)CCCCCCCC(=O)OC(CCCCC)CCCCCCCC (stereo not drawn) [Compound 33, nonyl 8-((2-hydroxyethyl)(8-oxo-8-(tetradecan-6-yloxy)octyl)amino) octanoate] | 107.3 | 95.66 | 1.78E+10 | 2.92E+07 | 3.77E+08 | – | –
5 | CCCCCCCCC(CCCCCCCC)OC(=O)CCCCCCCN(CCO)CCCC(=O)OCCCCC [Compound 52, heptadecan-9-yl 8-((2-hydroxyethyl)(4-oxo-4-(pentyloxy)butyl)amino) octanoate] | 130.5 | 93.25 | 5.86E+08 | 2.80E+06 | 8.30E+07 | – | –
6 | CCCCCCCCC(CCCCCCCC)OC(=O)CCCCCCCN(CCO)CCCC(=O)OCCCCCCC [Compound 54, heptadecan-9-yl 8-((4-(heptyloxy)-4-oxobutyl)(2-hydroxyethyl)amino) octanoate] | 112.9 | 96.71 | 5.57E+09 | 1.12E+07 | 1.64E+08 | – | –
7 | CCCCCCCCCOC(=O)CCCCCCCN(CCO)CCCCCCCC(=O)OC(CCCC)CCCC [Compound 57, nonan-5-yl 8-((2-hydroxyethyl)(8-(nonyloxy)-8-oxooctyl)amino) octanoate] | 128.4 | 94.33 | 9.36E+05 | 3.18E+04 | 2.47E+06 | – | –
8 | CCCCCCCCCOC(=O)CCCCCCCN(CCO)CCCCCCCC(=O)OC(CC)CC [Compound 59, nonyl 8-((2-hydroxyethyl)(8-oxo-8-(pentan-3-yloxy)octyl)amino) octanoate] | – | 94.44 | 2.87E+05 | 4.41E+04 | 9.68E+04 | – | –
9 | CCCCCCCCC(CCCCCCCC)OC(=O)CCCCCCCN(CCO)CCCCCC(=O)OC(C)CCCCCCCCOC(C)=O (stereo not drawn) [Compound 235, Heptadecan-9-yl 8-((6-((10-acetoxydecan-2-yl)oxy)-6-oxohexyl)(2-hydroxyethyl)amino)octanoate] | – | – | – | – | – | 228 | 40.9
10 | CCCCCCCCCOC(=O)CCCCCCCN(CCCCCCCC(=O)OC(CCCCCCCC)CCCCCCCC)CCCC(N)=O [Compound 243, Heptadecan-9-yl 8-((4-amino-4-oxobutyl)(8-(nonyloxy)-8-oxooctyl)amino)octanoate] | – | – | – | – | – | 90.6 | 99.4

Continued, in another order:

Row | Size [1, 3] [nm] | EE [2, 3] [%] | SMILES | Total Flux, Liver (modified luciferase) | Total Flux, Lung (modified luciferase) | Total Flux, Spleen (modified luciferase) | Size [1, 4] [nm] | EE [2, 4] [%]
11 | 53.5 | −15.1 | CCCCCCCCCOC(=O)CCCCCCCN(CCC#N)CCCCCCCC(=O)OC(CCCCCCCC)CCCCCCCC [Compound 21, Heptadecan-9-yl 8-((2-cyanoethyl)(8-(nonyloxy)-8-oxooctyl)amino) octanoate] | – | – | – | – | –
12 | 133.8 | 92.52 | CCCCCCCCCOC(=O)CCCCCCCN(CCO)CCCCCCCC(=O)OC(CCC)CCCCCCCC (stereo not drawn) [Compound 34, dodecan-4-yl 8-((2-hydroxyethyl)(8-(nonyloxy)-8-oxooctyl)amino) octanoate] | 2.08E+09 | 9.49E+06 | 2.40E+08 | – | –
13 | 80.6 | 96.40 | CCCCCCCCC(CCCCCCCC)OC(=O)CCCCCCCN(CCO)CCCCCCCCC1CC1CCCCCCCC (stereo not drawn) [Compound 47, heptadecan-9-yl 8-((2-hydroxyethyl)(8-(2-octylyclopropyl)octyl)amino)octanoate] | 4.86E+09 | 8.71E+06 | 8.33E+07 | – | –
14 | 125.4 | 95.8 | CCCCCCCCC(CCCCCCCC)OC(=O)CCCCCCCN(CCO)CCCC(=O)OCCCCCC [Compound 53, heptadecan-9-yl 8-((4-(hexyloxy)-4-oxobutyl)(2-hydroxyethyl)amino) octanoate] | 2.02E+09 | 2.47E+07 | 8.54E+08 | – | –
15 | 112.1 | 95.18 | CCCCCCCCCOC(=O)CCCCCCCN(CCO)CCCCCCCC(=O)OC(CCCCCC)CCCCCC [Compound 56, nonyl 8-((2-hydroxyethyl)(8-oxo-8-(tridecan-7-yloxy)octyl)amino) octanoate] | 1.04E+09 | 4.62E+06 | 1.98E+08 | – | –
16 | 130.8 | 92.54 | CCCCCCCCCOC(=O)CCCCCCCN(CCO)CCCCCCCC(=O)OC(CCC)CCC [Compound 58, heptan-4-yl 8-((2-hydroxyethyl)(8-(nonyloxy)-8-oxooctyl)amino) octanoate] | 8.71E+04 | 1.21E+04 | 2.38E+05 | – | –
17 | 90.9 | 79.6 | CCCCCCCCCOC(=O)CCCCCCCN(CCCCCCCC(=O)OC(CCCCCCCC)CCCCCCCC)CCC(=O)O [Compound 125, 3-((8-(Heptadecan-9-yloxy)-8-oxooctyl)(8-(nonyloxy)-8-oxooctyl)amino)propanoic acid] | – | – | – | – | –
18 | 75.5 | 92.89 | CCCCCCCCCOC(=O)CCCCCCCN(CCCCCCCC(=O)OC(CCCCCCCC)CCCCCCCC)CCCN(C)S(C)(=O)=O [Compound 173, Heptadecan-9-yl 8-((3-(N-methylmethylsulfonamido)propyl)(8-(nonyloxy)-8-oxooctyl)amino)octanoate] | – | – | – | – | –
19 | 65.7 | 94.8 | CCCCCCCCCOC(=O)CCCCCCCN(CCCCCCCC(=O)OC(CCCCCCCC)CCCCCCCC)CCCOC(=O)NC [Compound 175, Heptadecan-9-yl 8-((3-((methylcarbamoyl)oxy)propyl)(8-(nonyloxy)-8-oxooctyl)amino)octanoate] | – | – | – | – | –
20 | 71.6 | 94.7 | CCCCCCCCCOC(=O)CCCCCCCN(CCCCCCCC(=O)OC(CCCCCCCC)CCCCCCCC)CCCn1ccnn1 [Compound 179, Heptadecan-9-yl 8-((3-(1H-1,2,3-triazol-1-yl)propyl)(8-(nonyloxy)-8-oxooctyl)amino)octanoate] | – | – | – | – | –
